# Data as given in ChEMBL document CHEMBL5537116, “Synthesis and structure-activity optimization of hydroxypyridinones against rhabdomyolysis-induced acute kidney injury” (Eur J Med Chem, 2024).
# Active and inactive are the calls of the source. The rule behind the calls is not given here.
# How the values were obtained:
# [1] = Competitive binding affinity to Fe3+ ion assessed as metal chelating activity by measuring binding constant by calcein probe based fluorescence displacement assay
# [2] = system: HK-2; assay: Anti-ferroptotic activity against RSL3-induced ferroptosis in human HK-2 cells assessed as decrease in lipid peroxidation by measuring fluorescent intensity preincubated with FAC for 2 hrs followed by compound addition and measured after 12 hrs by flow cytometry analysis; type: functional, cell-based
# [3] = Cytotoxicity against human HK-2 cells assessed as cell growth inhibition incubated for 48 hrs by SRB assay; type: toxicity, cell-based
# [4] = Potency index, ratio of trolox IC50 to test compound IC50 for antioxidant activity assessed as ABTS radical scavenging activity incubated for 6 mins by absorbance based microplate reader analysis; type: functional
# [5] = system: HK-2; assay: Inhibition of RSL-3 induced ferroptosis in human HK-2 cells incubated for 48 hrs in presence of FAC; type: functional, cell-based; conditions: HK-2, 48 h
# [6] = Antioxidant activity assessed as ABTS radical scavenging activity incubated for 6 mins by absorbance based microplate reader analysis; type: functional
# [7] = system: HK-2; assay: Upregulation in intracellular HIF-1alpha level in human HK-2 cells at 50 uM under normoxia condition incubated for 12 hrs by Western blot analysis; type: functional, cell-based
# [8] = Sub-acute in C57BL/6 mouse assessed as animal death at 1 mg/kg, ip measured on day 2; type: toxicity, organism-based; conditions: in vivo, 48 h, time 2 day
# [9] = system: Mus musculus; assay: (§1) Reno-protective activity against glycerol-induced rhabdomyolysis acute kidney injury C57BL/6 mouse model assessed as decrease in BUN level at 50 mg/kg, ip preadministered with every 12 hrs of compound for 5 times in first three days with subsequent 1 hrs compound treatment after 16 hrs of water deprivation followed by glycerol administration and measured on day 5; type: functional; design: scale not given: the % may be the effect or the level left; conditions: time 5 day
# [10] = system: Mus musculus; assay: as §1, with “serum creatinine” for “BUN”; type: functional; design: scale not given: the % may be the effect or the level left; conditions: time 5 day
# [11] = system: Mus musculus; assay: as §1, with “10” for “50”; type: functional; design: scale not given: the % may be the effect or the level left; conditions: time 5 day
# [12] = Sub-acute in C57BL/6 mouse assessed as animal death at 1 mg/kg, ip measured for 7 days; type: toxicity, organism-based; conditions: in vivo, 168 h, time 7 day
# [13] = Sub-acute in C57BL/6 mouse assessed as change in body weight at 200 mg/kg, ip measured for 7 days; type: toxicity, organism-based; conditions: in vivo, 168 h, time 7 day
# [14] = system: Mus musculus; assay: as §1, with “4 to 10” for “50”; type: functional, organism-based; conditions: dose 4-10 mg/kg, time 5.0 day
# [15] = system: Mus musculus; assay: (§2) Reno-protective activity against glycerol-induced rhabdomyolysis acute kidney injury C57BL/6 mouse model assessed as downregulation of Acls4 mRNA expression at 4 to 10 mg/kg, ip preadministered with every 12 hrs of compound for 5 times in first three days with subsequent 1 hrs compound treatment after 16 hrs of water deprivation followed by glycerol administration and measured on day 5 by qRT-PCR analysis; type: functional, organism-based; conditions: dose 4-10 mg/kg, time 5.0 day
# [16] = system: Mus musculus; assay: as §1, with “serum creatinine” for “BUN”, “4 to 10” for “50”; type: functional, organism-based; conditions: dose 4-10 mg/kg, time 5.0 day
# [17] = Sub-acute in C57BL/6 mouse assessed as poisoning symptoms at 1 mg/kg, ip measured for 7 days; type: toxicity, organism-based; conditions: in vivo, 168 h, time 7 day
# [18] = system: Mus musculus; assay: Upregulation of HIF-1alpha expression in C57BL/6 mouse kidney at 50 mg/kg, ip administered for every 12 hrs for 3 days and measured after 5 days; type: functional, organism-based
# [19] = system: Mus musculus; assay: as §1, with “serum creatinine” for “BUN”, “4” for “50”; type: functional; design: scale not given: the % may be the effect or the level left; conditions: time 5 day
# [20] = target: Hypoxia-inducible factor 1-alpha (Homo sapiens) (UniProt Q16665); assay: Induction of HIF-1alpha stabilization in human HK-2 cells by Western blotting analysis; type: cell-based; conditions: dose 5-20 µM
# [21] = system: Mus musculus; assay: as §2, with “Ptgs2” for “Acls4”; type: functional, organism-based; conditions: dose 4-10 mg/kg, time 5.0 day
# [22] = system: Mus musculus; assay: as §1, with “serum creatinine” for “BUN”, “10” for “50”; type: functional; design: scale not given: the % may be the effect or the level left; conditions: time 5 day
# [23] = system: Mus musculus; assay: as §1, with “iron accumulation in kidney” for “BUN level”, “4 to 10” for “50”; type: functional, organism-based; conditions: dose 4-10 mg/kg, time 5.0 day
# [24] = Toxicity in C57BL/6 mouse assessed as kidney damage at 10 mg/kg, ip measured for 3 days by H and E staining based analysis; type: organism-based; conditions: in vivo, 72 h, time 3 day
# [25] = system: Mus musculus; assay: as §1, with “4” for “50”; type: functional; design: scale not given: the % may be the effect or the level left; conditions: time 5 day
# [26] = system: HK-2; assay: Upregulation in intracellular HIF-1alpha level in human HK-2 cells at 20 uM under normoxia condition incubated for 12 hrs by Western blot analysis; type: functional, cell-based
# Hypoxia-inducible factor 1-alpha (Homo sapiens), sequence (Q16665 whole entry, looked up): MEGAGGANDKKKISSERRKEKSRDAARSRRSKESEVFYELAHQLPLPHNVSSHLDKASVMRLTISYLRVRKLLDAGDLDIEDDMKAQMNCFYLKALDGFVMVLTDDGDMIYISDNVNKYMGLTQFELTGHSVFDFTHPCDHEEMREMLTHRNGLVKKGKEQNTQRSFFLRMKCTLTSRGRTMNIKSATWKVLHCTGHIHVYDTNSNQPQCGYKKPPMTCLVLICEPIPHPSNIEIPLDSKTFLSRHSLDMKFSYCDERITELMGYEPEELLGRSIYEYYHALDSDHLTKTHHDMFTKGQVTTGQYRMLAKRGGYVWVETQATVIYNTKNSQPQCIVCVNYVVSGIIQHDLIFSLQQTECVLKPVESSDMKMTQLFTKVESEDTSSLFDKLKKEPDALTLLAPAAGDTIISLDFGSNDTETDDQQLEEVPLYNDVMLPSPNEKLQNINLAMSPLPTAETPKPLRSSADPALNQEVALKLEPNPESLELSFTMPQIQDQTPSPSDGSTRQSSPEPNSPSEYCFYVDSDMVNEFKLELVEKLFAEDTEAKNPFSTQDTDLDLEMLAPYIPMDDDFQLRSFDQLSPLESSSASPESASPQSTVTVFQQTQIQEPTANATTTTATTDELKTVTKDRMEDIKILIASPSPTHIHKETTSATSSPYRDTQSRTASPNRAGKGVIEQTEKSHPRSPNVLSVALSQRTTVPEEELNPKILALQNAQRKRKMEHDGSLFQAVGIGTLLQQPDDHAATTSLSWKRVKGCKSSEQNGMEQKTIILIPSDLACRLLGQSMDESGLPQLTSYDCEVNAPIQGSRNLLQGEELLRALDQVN
compound,measurement,setting,value
Cc1c(O)c(=O)ccn1-c1ccc(OCCN(C)C)cc1,Kb,[1],1.37 10^22/M
same,Activity,[2],Active
same,CC50 at 48 h,[3],> 100 µM
same,Ratio IC50,[4],1.5
same,EC50,[5],18 µM
same,IC50,[6],22.9 µM
Cc1c(O)c(=O)ccn1CC1CCCCC1,Kb,[1],1.32 10^22/M
same,CC50 at 48 h,[3],> 100 µM
same,EC50,[5],> 100 µM
Cc1c(O)c(=O)ccn1-c1ccc(N(C)C)cc1,Kb,[1],0.98 10^22/M
same,CC50 at 48 h,[3],> 100 µM
same,EC50,[5],45 µM
Cc1c(O)c(=O)ccn1-c1ccc(NCCN(C)C)cc1,Kb,[1],1.4 10^22/M
same,CC50 at 48 h,[3],> 100 µM
same,EC50,[5],35 µM
Cc1c(O)c(=O)ccn1-c1ccc(N(C)CCO)cc1,Kb,[1],1.15 10^22/M
same,CC50 at 48 h,[3],> 100 µM
same,EC50,[5],46 µM
Cc1c(O)c(=O)ccn1-c1ccc(OC2CCN(C)C2)cc1 (centres undefined),Kb,[1],1.35 10^22/M
same,CC50 at 48 h,[3],> 100 µM
same,EC50,[5],> 100 µM
Cc1c(O)c(=O)ccn1-c1ccc(N2CCN(C)CC2)cc1,Kb,[1],1.3 10^22/M
same,CC50 at 48 h,[3],81 µM
same,EC50,[5],60 µM
same,Activity,[7],Active
Cc1c(O)c(=O)ccn1-c1ccc(N2CCOCC2)cc1,Kb,[1],1.33 10^22/M
same,CC50 at 48 h,[3],> 100 µM
same,EC50,[5],58 µM
Cc1c(O)c(=O)ccn1-c1ccc(OCCN2CCCCC2)cc1,Kb,[1],2.23 10^22/M
same,CC50 at 48 h,[3],> 100 µM
same,EC50,[5],86 µM
CCc1c(O)c(=O)ccn1CCc1ccccc1,Kb,[1],1.69 10^22/M
same,CC50 at 48 h,[3],> 100 µM
same,EC50,[5],> 100 µM
Cc1c(O)c(=O)ccn1-c1ccc(NCCN2CCN(C)CC2)cc1,Kb,[1],1.22 10^22/M
same,CC50 at 48 h,[3],> 100 µM
same,EC50,[5],44 µM
Cc1c(O)c(=O)ccn1-c1ccc(N2CCN(C)CC2)c(F)c1,Kb,[1],1.17 10^22/M
same,CC50 at 48 h,[3],> 100 µM
same,EC50,[5],93 µM
Cc1c(O)c(=O)ccn1-c1ccc(OCCCN2CCOCC2)cc1,Kb,[1],1.23 10^22/M
same,Activity,[2],Active
same,CC50 at 48 h,[3],78 µM
same,Ratio IC50,[4],1.5
same,EC50,[5],20 µM
same,IC50,[6],17.2 µM
Cc1c(O)c(=O)ccn1-c1ccc(OCCOCCN(C)C)cc1,Kb,[1],1.79 10^22/M
same,Activity,[2],Active
same,CC50 at 48 h,[3],68 µM
same,Ratio IC50,[4],1.5
same,EC50,[5],28 µM
same,IC50,[6],22.2 µM
Cc1c(O)c(=O)ccn1CCc1ccccc1,Kb,[1],1 10^22/M
same,CC50 at 48 h,[3],> 100 µM
same,EC50,[5],> 100 µM
Cc1c(O)c(=O)ccn1CCN(C)C,Kb,[1],1.21 10^22/M
same,CC50 at 48 h,[3],> 100 µM
same,EC50,[5],> 100 µM
Cc1c(O)c(=O)ccn1C [DEFERIPRONE],Kb,[1],1.52 10^22/M
same,CC50 at 48 h,[3],> 100 µM
same,EC50,[5],> 100 µM
same,Activity,[8],Toxic
same,Activity,[9],18%
same,IC50,[6],16 µM
same,Activity,[10],19%
Cc1c(O)c(=O)ccn1-c1ccc(OCC2CCN(C)CC2)cc1,Kb,[1],1.12 10^22/M
same,CC50 at 48 h,[3],> 100 µM
same,EC50,[5],43 µM
Cc1c(C)c2c(c(C)c1O)CCC(C)(C(=O)O)O2 (centres undefined) [TROLOX],IC50,[6],33.7 µM
COc1cc(N2CCN(C)CC2)ccc1-n1ccc(=O)c(O)c1C,Kb,[1],1.88 10^22/M
same,CC50 at 48 h,[3],> 100 µM
same,EC50,[5],> 100 µM
Cc1c(O)c(=O)ccn1-c1ccc(N(C)CCN(C)C)cc1.Cl,Kb,[1],1.16 10^22/M
same,Activity,[11],44%
same,Activity,[12],Non-Toxic
same,Activity,[13],Non-Toxic
same,Activity,[14],Active
same,Activity,[15],Active
same,Activity,[16],Active
same,Activity,[17],Non-Toxic
same,Activity,[18],Active
same,Activity,[19],14%
same,Activity,[2],Active
same,Activity,[20],Dose-Dependent Effect
same,Activity,[21],Active
same,Activity,[22],68%
same,Activity,[23],Active
same,CC50 at 48 h,[3],> 100 µM
same,Ratio IC50,[4],1.5
same,EC50,[5],20 µM
same,Activity,[24],Non-Toxic
same,Activity,[25],19%
same,IC50,[6],12.3 µM
same,Activity,[26],Active
